Laboratory results from US20200085047A1, “Use of an Acyclic Picolinamide Compound as a Fungicide for Control of Phytopathogenic Fungi in Vegetables” (Dow AgroSciences LLC, priority 2017, published 2020).

Experiments:
Format in all cases: in vivo
[1] = system: Mycovellosiella fulva; experiment: Field assessment of Mycovellosiella fulva (FULVFU) on tomato, curative; settings: 10% SC; for Percent control based on AUDPC, FULVFU, adjuvant II: Agnique BP420 (50% w/w at 0.3% v/v); for Percent control based on AUDPC, FULVFU, adjuvant I: no adjuvant
Excerpt: Field assessment of Mycovellosiella fulva (FULVFU) on tomato:
A 10% SC formulation of compound I was tanked mixed with four different adjuvants: Agnique BP420 (50% w/w at 0.3% v/v); Trycol (50% w/w at 0.1% v/v); Ethomeen T18H (50% w/w at 0.2% v/v); and Phase II (50% w/w at 0.2% v/v). A fungicidal treatment containing formulations of compound I, either alone or with adjuvants, was sprayed on tomato plants four times, the first application approximately 3 months after planting, with the following three applications in 7-10 day intervals. Formulations of compound I were applied at rates of 50, 100, 150 and 200 grams of active ingredient per hectare (g ai/ha). The experimental plots were inoculated with the leaf mold pathogen 7 days before the first application (curative). The treatment was part of an experimental trial designed as a randomized complete block with four replications and a plot of approximately 2.5×1.4 m. Formulations of compound I were applied at water volume of 675 L/ha.
Disease severity was recorded as a percentage of visual diseased foliage (6 random plants per plot). Tomato leaf mold infection was assessed five times at 7 days after the first application (7 DAAA), 7 DAAB, 5 DAAC, followed by 7 and 12 DAAD. Area under the disease progress curve (AUDPC) was calculated for each plot using the sets of recorded severity data. Relative AUDPC (% control based on AUDPC) was calculated as percent of the nontreated control.

[2] = system: Sclerotinia sclerotiorum; experiment: Field assessment of Sclerotinia sclerotiorum (SCLESC) on lettuce, 2 day protectant; settings: 5% EC + Trycol
Excerpt: Field Assessment of Sclerotinia sclerotiorum (SCLESC) on Lettuce:
A fungicidal treatment containing a 5% EC formulation of compound I plus an adjuvant (Trycol, 50% w/w at 0.2% v/v), was sprayed on head lettuce plants (LACSC) twice, the first application at the heading stage 36 days after planting, and the second application 7 days later. Formulations of compound I were applied at rates of 50, 100, and 150 grams of active ingredient per hectare (g ai/ha). The experimental plots were inoculated with sclerotinia rot pathogen 2 days after the first application. The treatment was part of an experimental trial designed as a randomized complete block with four replications and a plot of approximately 2×1 m, with formulations of compound I being applied at water volume of 800 L/ha.
Disease infection percentage was calculated by the equation (stem lesion lengths)/(total stem lengths)×100% per plant (6 plants per plot randomly). Sclerotinia rot infection was assessed four times, 7 days after application A (DAAA) plus 7, 14 and 21 DAAB. Area under the disease progress curve (AUDPC) was calculated for each plot using the sets of recorded visual infection data. Relative AUDPC (% control based on AUDPC) was calculated as percent of the nontreated control.

[3] = system: Alternaria brassicicola; experiment: Field assessment of Alternaria brassicicola (ALTEBI) on cabbage, 2 day protectant; settings: 5% EC + Trycol
Excerpt: Field assessment of Alternaria brassicicola (ALTEBI) on cabbage:
A fungicidal treatment containing Compound I, applied in a 5% EC formulation and tank mixed with an adjuvant (Trycol, 50% w/w at 0.2% v/v), was sprayed three times on head cabbage plants (BRSOL) with the first application at 10-12 LF stage of cabbage. The following applications were done at 7 day intervals will all applications being sprayed at rates of 50, 100, and 150 grams of active ingredient per hectare (g ai/ha). The experimental plots were inoculated with black leaf spot pathogen 2 days after the first application. The treatment was part of an experimental trial designed as a randomized complete block with four replications and a plot of approximately 2×1 m, with compound I being applied at water volume of 800 L/ha.
Disease severity was assessed as the percent diseased area of cabbage bottom foliage (6 plants per plot randomly). Visual infection was assessed three times during the trial at 7 days after each application. Area under the disease progress curve (AUDPC) was calculated for each plot using the sets of recorded severity data. Relative AUDPC (% control based on AUDPC) was calculated as percent of the nontreated control.

[4] = system: Alternaria solani; experiment: Field assessment of Alternaria solani (ALTESO) on tomato, trial 1 (inoculated); settings: for Percent disease control on tomato fruits (AUDPC), Trial 1, 5% EC: 5% EC + Agnique BP420, fruits; for Percent disease control on tomato leaves (AUDPC), Trial 1, 5% EC: 5% EC + Agnique BP420, leaves; for Percent disease control on tomato fruits (AUDPC), Trial 1, 10% SC: 10% SC + Agnique BP420, fruits; for Percent disease control on tomato leaves (AUDPC), Trial 1, 10% SC: 10% SC + Agnique BP420, leaves
Procedure: Field Assessment of Alternaria solani (ALTESO) on Tomato:
Assessment of compound I of ALTESO on tomato was performed in two separate field trials. In the first trial, a fungicidal treatment containing Compound I, applied in both a 5% EC and 10% SC formulation and tank mixed with an adjuvant (Agnique BP420, 50% w/w at 0.3% v/v), was sprayed on tomato plants (LYPES) at approximately 60-70 cm in height at rates of 100 and 200 grams of active ingredient per hectare (g ai/ha). The trial was based on five foliar applications at 7 day intervals with inoculation with the early blight pathogen 2 days after the first application. The treatment was part of an experimental trial designed as a randomized complete block with four replications and a plot of approximately 1.5×4 m. Compound I was applied at water volume of 1000 L/ha with an AZO backpack sprayer using compressed air.
Disease severity was recorded as percent diseased area on a random selection of 20 leaves and 20 fruits per plot. Percent control was assessed with 6 evaluations made between 0-35 days after the first application, DAA1. Area under the disease progress curve (AUDPC) was calculated for each plot using the sets of recorded severity data. Relative AUDPC (% control based on AUDPC) was calculated as percent of the nontreated control.

COc1ccnc(C(=O)N[C@@H](C)C(=O)O[C@@H](C)C(c2ccc(F)cc2)c2ccc(F)cc2)c1OC(C)=O [Compound I, (S)-1,1-bis(4-fluorophenyl)propan-2-yl (3-acetoxy-4-methoxypicolinoyl)-L-alaninate]
Percent control based on AUDPC, FULVFU, adjuvant II ([1]; 50 g ai/ha): A (76-100)
Percent control based on AUDPC, FULVFU, adjuvant I ([1]; 50 g ai/ha): C (26-50)
Percent control based on AUDPC, FULVFU, adjuvant II ([1]; 100 g ai/ha): A (76-100)
Percent control based on AUDPC, FULVFU, adjuvant IV ([1]; 100 g ai/ha, Ethomeen T18H (50% w/w at 0.2% v/v)): B (51-75)
Percent control based on AUDPC, FULVFU, adjuvant V ([1]; 100 g ai/ha, Phase II (50% w/w at 0.2% v/v)): A (76-100)
Percent control based on AUDPC, FULVFU, adjuvant III ([1]; 100 g ai/ha, Trycol (50% w/w at 0.1% v/v)): A (76-100)
Percent control based on AUDPC, FULVFU, adjuvant I ([1]; 100 g ai/ha): C (26-50)
Percent control based on AUDPC, FULVFU, adjuvant II ([1]; 150 g ai/ha): A (76-100)
Percent control based on AUDPC, FULVFU, adjuvant II ([1]; 200 g ai/ha): A (76-100)
Percent control based on AUDPC, SCLESC 2 DP ([2]; 50 g ai/ha): B (51-75)
Percent control based on AUDPC, SCLESC 2 DP ([2]; 100 g ai/ha): A (76-100)
Percent control based on AUDPC, SCLESC 2 DP ([2]; 150 g ai/ha): A (76-100)
Percent control based on AUDPC, ALTEBI 2 DP ([3]; 50 g ai/ha): C (26-50)
Percent control based on AUDPC, ALTEBI 2 DP ([3]; 100 g ai/ha): B (51-75)
Percent control based on AUDPC, ALTEBI 2 DP ([3]; 150 g ai/ha): B (51-75)
Percent disease control on tomato fruits (AUDPC), Trial 1, 5% EC ([4]; 100 g ai/ha): A (76-100)
Percent disease control on tomato leaves (AUDPC), Trial 1, 5% EC ([4]; 100 g ai/ha): A (76-100)
Percent disease control on tomato fruits (AUDPC), Trial 1, 10% SC ([4]; 100 g ai/ha): A (76-100)
Percent disease control on tomato leaves (AUDPC), Trial 1, 10% SC ([4]; 100 g ai/ha): A (76-100)
Percent disease control on tomato fruits (AUDPC), Trial 1, 5% EC ([4]; 200 g ai/ha): A (76-100)
Percent disease control on tomato leaves (AUDPC), Trial 1, 5% EC ([4]; 200 g ai/ha): A (76-100)
Percent disease control on tomato fruits (AUDPC), Trial 1, 10% SC ([4]; 200 g ai/ha): A (76-100)
Percent disease control on tomato leaves (AUDPC), Trial 1, 10% SC ([4]; 200 g ai/ha): A (76-100)
